Assay results from patent publication US6360743B1, “System for dispensing pharmaceutical active compounds” (AB Astra, priority 1992, dated 2002).

How the values were obtained:
[1] = Absolute systemic availability and lung deposition of inhaled budesonide (plasma LC-MS); format: in vivo, healthy subjects; conditions: for Cmax / Tmax: human, plasma, inhaled or intranasal, 1 mg, 1 mg inhaled; for absolute systemic availability (geometric mean): 1 mg as five inhalations of 200 micrograms, vs 0.5 mg intravenously; for amount deposited and absorbed in the lung (geometric mean, range): calculated assuming 13% availability of swallowed budesonide
Method: In order to determine the absolute systemic availability and the amount of budesonide deposited and absorbed in the lung after inhalation via TURBUHALER and via an MDI, 24 healthy subjects were given budesonide 1 mg as five inhalations of 200 micrograms each, via TURBUHALER inhaler or via MDI, and 0.5 mg intravenously, on separate study days. Budesonide levels were determined in plasma by a LC-MS method. The amount of budesonide absorbed in the lung was calculated on the assumption of an availability of swallowed budesonide of 13%. Furthermore, absorption in the lung was calculated in 13 of the subjects after inhalation with concomitant oral dosing of charcoal to prevent absorption of budesonide from the gastrointestinal track. There was good conformity between the two modes of calculation.

[2] = generally regarded; cited from earlier work

| Compound | lung deposition from TURBUHALER relative to MDI ([1]; TURBUHALER versus MDI) | Cmax ([1]; via MDI) | Tmax ([1]; via MDI) | Cmax ([1]; via TURBUHALER) | Tmax ([1]; via TURBUHALER) | absolute systemic availability (geometric mean) ([1]; via MDI) | amount deposited and absorbed in the lung (geometric mean, range) ([1]; via MDI) | absolute systemic availability (geometric mean) ([1]; via TURBUHALER) | amount deposited and absorbed in the lung (geometric mean, range) ([1]; via TURBUHALER) | dose regarded as equipotent to 0.25 mg of terbutaline sulphate [2] |
| --- | --- | --- | --- | --- | --- | --- | --- | --- | --- | --- |
| CCCC1O[C@@H]2C[C@H]3[C@@H]4CCC5=CC(=O)C=C[C@]5(C)[C@H]4[C@@H](O)C[C@]3(C)[C@]2(C(=O)CO)O1 (stereo partly shown) [budesonide] | twice that from an MDI | 2.3 nM | 30 min | 3.6 nM | 18 min | 28% | 15% (3%-47%) | 38% | 32% (16%-59%) | – |
| CC(C)(C)NCC(O)c1ccc(O)c(CO)c1 (stereo not shown) [salbutamol] | – | – | – | – | – | – | – | – | – | 0.1 mg |
